Experimental data reported in patent publication US20230346774A1, “METHODS OF STIMULATING AN ANTI-TUMOR RESPONSE USING A SELECTIVE GLUCOCORTICOID RECEPTOR MODULATOR” (Corcept Therapeutics Incorporated, priority 2020, published 2023).

Key:
stimulated human PBMC’s = assay: Activation of stimulated human PBMCs (PHA or αCD3+IL-12) +/- cortisol or cortisol + relacorilant; assay type: cell-based; settings: for cytokines and chemokines (including IFNγ, IL-1β, IL-1α, IL-6): PHA or αCD3 stimulation; for cytokines and chemokines (including IFNγ, IL-1β, IL-1α, IL-6) / Expression of CD137 (aka 41-BB) on CD8+ cells: physiological cortisol; for CD3+ cell surface receptors: PHA stimulation; for inflammatory cytokines such as TNF-α: induced by stimulation; for inflammatory cytokines such as TNF-α / Expression of CD137 (aka 41-BB) on CD8+ cells: relacorilant in presence of cortisol; for CD8+ T-cell activation / pro-inflammatory cytokine secretion (TNFα, IFNγ): αCD3+IL-12; for CD8+ T-cell activation: P<0.001; for pro-inflammatory cytokine secretion (TNFα, IFNγ): TNFα P=0.006, IFNγ P<0.05
Experimental: To understand the molecular consequences of GC activity on T-cell activation, the effects of cortisol and relacorilant were assessed on stimulated human PBMC’s. […] Expression of CD137 (aka 41-BB) on CD8+ cells was reduced by cortisol and rescued by relacorilant. […] Expression of CD137 (aka 41-BB) within CD8+ cells was reduced by cortisol and rescued by relacorilant. […] Thus, as shown also in FIG. 4, inflammatory cytokines such as TNF-α were induced by stimulation, suppressed by cortisol, and rescued by relacorilant. […] FIG. 6A and FIG. 6B show, following stimulation by phytohemagglutinin (PHA) (FIG. 6A) or αCD3 (FIG. 6B), suppression of cytokines and chemokines by cortisol and the restoration of cytokine/chemokine levels by relacorilant. (Supernatant IL-12 measurements were excluded from the analysis shown in FIG. 6B since the stimulation included recombinant IL-12.) Physiological levels of cortisol suppressed cytokines and chemokines, and this suppression was reversed by relacorilant.
(§1) Methods: Immune cell abundance and GR expression were assessed by IHC and calculated based on The Cancer Genome Atlas (TCGA) data. Human PBMCs were stimulated with αCD3+IL-12 +/- cortisol or cortisol + relacorilant. EG7 tumor-bearing mice were treated with αPD1 (RMP1-14) ip (intraperitoneally) Q5D (every fifth day) +/- daily relacorilant (QD). Whole blood mRNA was measured via Nanostring, hematology was performed using standard complete blood count assays, and cytokines were assessed by immunoassays in study NCT02762981.

EG7 tumor cells [1] = assay: EG7 syngeneic model in OT-1/Rag-/- mice with cortisol in drinking water
Experimental: The suppressive effects of cortisol on CD8+ cytotoxic T-cells, and the ability of relacorilant to promote T-cell activation, were assessed in the EG7 syngeneic mouse model. EG7 tumor cells express ovalbumin, and the model was studied both in WT or OT-1/Rag^-/- mice. The OT-1/Rag^-/- mice only have T-cells expressing a transgenic ovalbumin-specific TCR. […] The combination of PD1 antagonist antibody (RMP1-14) and relacorilant was assessed in the EG7 tumor model.

EG7 tumor cells [2] = assay: EG7 tumor model in WT mice, αPD1 (RMP1-14) +/- relacorilant; assay type: in vivo, mouse; settings: for TNFα levels in terminal sera: sera collected between days 11 and 21
Experimental: The combination of PD1 antagonist antibody (RMP1-14) and relacorilant was assessed in the EG7 tumor model. Most reports have assessed αPD1 effects on EG7 cells in WT mice without added cortisol, so this more established model was used.
as §1

GR [3] = molecular target: T1, GR (Homo sapiens, UniProt P04150); assay: GR binding; settings: read-out: Half-maximal GR binding
T1 sequence (P04150 1-777): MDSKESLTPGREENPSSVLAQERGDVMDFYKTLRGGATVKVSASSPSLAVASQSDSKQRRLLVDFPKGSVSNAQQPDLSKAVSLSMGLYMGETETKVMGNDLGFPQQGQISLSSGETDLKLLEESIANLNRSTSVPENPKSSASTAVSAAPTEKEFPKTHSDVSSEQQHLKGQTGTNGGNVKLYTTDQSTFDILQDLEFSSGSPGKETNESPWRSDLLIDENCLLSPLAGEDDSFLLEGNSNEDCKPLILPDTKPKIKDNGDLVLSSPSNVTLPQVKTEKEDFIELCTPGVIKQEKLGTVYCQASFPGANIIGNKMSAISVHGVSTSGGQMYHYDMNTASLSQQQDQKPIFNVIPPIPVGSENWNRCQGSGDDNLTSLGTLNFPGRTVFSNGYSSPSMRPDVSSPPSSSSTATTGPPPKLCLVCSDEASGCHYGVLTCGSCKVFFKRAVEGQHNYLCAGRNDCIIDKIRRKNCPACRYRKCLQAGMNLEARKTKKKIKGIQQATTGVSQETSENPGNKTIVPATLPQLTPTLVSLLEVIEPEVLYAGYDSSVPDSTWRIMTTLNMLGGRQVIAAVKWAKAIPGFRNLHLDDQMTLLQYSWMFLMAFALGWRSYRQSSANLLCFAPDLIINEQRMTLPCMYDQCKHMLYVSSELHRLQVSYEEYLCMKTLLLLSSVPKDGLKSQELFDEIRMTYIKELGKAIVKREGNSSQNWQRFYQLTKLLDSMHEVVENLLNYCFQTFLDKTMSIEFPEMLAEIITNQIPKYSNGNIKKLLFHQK

[4] = molecular target: T2, progesterone receptor (PR) (Homo sapiens, UniProt P06401); assay: PR binding; settings: binding not observed at these concentrations
T2 sequence (P06401 1-933): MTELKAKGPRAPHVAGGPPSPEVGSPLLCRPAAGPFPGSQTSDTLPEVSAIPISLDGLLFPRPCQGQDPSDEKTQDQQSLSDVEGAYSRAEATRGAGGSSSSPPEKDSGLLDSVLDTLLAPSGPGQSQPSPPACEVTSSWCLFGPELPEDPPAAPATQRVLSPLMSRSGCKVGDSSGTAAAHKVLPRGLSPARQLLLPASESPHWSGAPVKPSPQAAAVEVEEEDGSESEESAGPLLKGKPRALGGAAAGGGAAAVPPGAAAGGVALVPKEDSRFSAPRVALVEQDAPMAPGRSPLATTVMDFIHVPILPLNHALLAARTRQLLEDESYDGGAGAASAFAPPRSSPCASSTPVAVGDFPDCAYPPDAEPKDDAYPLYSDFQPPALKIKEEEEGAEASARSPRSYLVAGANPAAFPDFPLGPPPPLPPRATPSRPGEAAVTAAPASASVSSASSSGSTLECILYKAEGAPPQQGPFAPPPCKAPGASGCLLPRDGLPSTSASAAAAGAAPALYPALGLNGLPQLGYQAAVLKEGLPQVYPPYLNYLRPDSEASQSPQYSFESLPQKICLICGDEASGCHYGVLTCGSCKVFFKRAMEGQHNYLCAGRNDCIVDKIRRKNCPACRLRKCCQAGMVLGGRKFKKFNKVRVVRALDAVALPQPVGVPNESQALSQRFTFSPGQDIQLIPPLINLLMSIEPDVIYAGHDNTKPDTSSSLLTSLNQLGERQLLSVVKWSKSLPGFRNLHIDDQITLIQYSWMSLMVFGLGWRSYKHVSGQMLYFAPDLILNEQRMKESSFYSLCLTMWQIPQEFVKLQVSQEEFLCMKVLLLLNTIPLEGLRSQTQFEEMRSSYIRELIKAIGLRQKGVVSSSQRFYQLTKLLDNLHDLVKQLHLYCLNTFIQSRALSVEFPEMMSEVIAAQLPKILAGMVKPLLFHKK

human stimulated PBMCs = assay: Restoration of TNF-α production in stimulated PBMCs suppressed by GR agonists; assay type: cell-based; settings: PBMC, read-out: restoration of TNF-α production, half maximal effect
[5] = system: rat model of corticosterone-induced insulin resistance; assay: Rat model of corticosterone-induced insulin resistance; assay type: in vivo; settings: oral, doses giving systemic exposure similar to phase I studies
healthy volunteers = assay: Phase I healthy volunteer studies (prednisone challenge); assay type: in vivo, human; settings: for NLR: healthy volunteers with normal cortisol levels
From the text: (§2) GR is a broad regulator of immunosuppressive transcriptional programs, so we first assessed the transcriptional effects of prednisone in and/or relacorilant in whole blood. […] These three genes are known to play a role in suppressing the cytotoxic T-cell response.

GR [6] = molecular target: T1, GR; assay: GR inverse agonism
[7] = system: patients with Cushing’s disease; assay: Phase II study in patients with Cushing’s disease; assay type: in vivo, human
[8] = system: patients with advanced solid tumors; assay: Phase I study of relacorilant+nab-paclitaxel in solid tumor patients (NCT02762981); settings: human, in vivo
Experimental: as §2, §1

[9] = system: E.G7-OVA mouse lymphoma cells; assay: Short term (7-day) EG7 pharmacodynamic study in B6 CD45.1 mice; assay type: in vivo
Experimental: A short term (7-day) EG7 pharmacodynamic study was conducted in female B6 CD45.1 mice to assess the effects of relacorilant+ αPD1 on T-cell proliferation and activation. Spleen and portions of tumor from B6 CD45.1 female mice subcutaneously inoculated with E.G7-OVA mouse lymphoma cells and treated with CORT125134 (30 mg/kg, administered p.o. once daily for 7 days) and RMP1-14 (10 mg/kg, administered i.p. on every fifth day for a total of two doses), alone and in combination, were analyzed via flow cytometry. Unlike the previous study, cell and cytokine analyses were synchronized and occurred before differences in tumor volume were detected (FIG. 14). Thus, in this study, changes in tumor volumes cannot influence the cytokine or T-cell measurements. There were no adverse effects of the treatments on clinical signs or body weight changes.
Antigen specific T-cells are key mediators of the anti-tumor immune response. The EG7 model expresses the model antigen ovalbumin. Antigen specific T-cells can be quantified by measuring T-cells that recognize ovalbumin. Cells which bind T-cells markers (such as anti-CD3 and anti-CD8) and bind labeled ovalbumin tetramers are thus considered antigen specific T-cells. Antigen specific T-cells were increased by the combination of relacorilant + αPD1 in the spleen and tumor (FIG. 15). […]

## cortisol
Stimulated human PBMC’s; 400 nM cortisol, PHA or αCD3+IL-12
  phenotypic effects of stimulation: potently suppressed nearly every phenotypic effect of stimulation
Stimulated human PBMC’s
  cytokines and chemokines (including IFNγ, IL-1β, IL-1α, IL-6): suppressed
  CD3+ cell surface receptors: suppression
  inflammatory cytokines such as TNF-α: suppressed
  Expression of CD137 (aka 41-BB) on CD8+ cells: reduced
  CD8+ T-cell activation: inhibited
  pro-inflammatory cytokine secretion (TNFα, IFNγ): inhibited
EG7 tumor cells [1]; OT-1/Rag-/- mice
  mice with measurable tumors by day 10: All mice
  tumor growth: rapid tumor growth
EG7 tumor cells [1]; OT-1/Rag-/- mice given cortisol +/- relacorilant
  histologically confirmed complete remissions: none
EG7 tumor cells [1]; OT-1/Rag-/- mice, 0/5 in controls
  Premature deaths: 2/5
EG7 tumor cells [2]; cortisol added to relacorilant treatment
  tumor growth on excess cortisol administration: restored tumor growth
EG7 tumor cells [2]; cortisol in drinking water of wild type (WT) mice
  tumor control or growth: no effect on tumor control or growth
EG7 tumor cells [2]
  TNFα levels in terminal sera: suppressed

## Cn1cc(S(=O)(=O)N2CCC3=Cc4c(cnn4-c4ccc(F)cc4)C[C@]3(C(=O)c3cc(C(F)(F)F)ccn3)C2)cn1 [relacorilant, (R)-(1-(4-fluorophenyl)-6-((1-methyl-1H-pyrazol-4-yl)sulfonyl)-4,4a,5,6,7,8-hexahydro-1H-pyrazolo[3,4-g]isoquinolin-4a-yl)(4-(trifluoromethyl)pyridin-2-yl)methanone]
GR [3]
  IC50: 0.15 nM
[4]
  IC50: > 1000 nM
Human stimulated PBMCs
  EC50: 9 nM
[5]
  glucose and insulin: normalized glucose and insulin
Healthy volunteers; healthy volunteers
  tolerability: demonstrated tolerability
Healthy volunteers
  NLR: does not affect NLR
Healthy volunteers; prednisone challenge
  GR agonist induction of FKBP5 mRNA in whole blood: reversed
  GR agonist suppression of eosinophil abundance in whole blood: reversed
Healthy volunteers; relacorilant co-dosed with prednisone
  prednisone-induced increase in the NLR: reversed
GR [6]
  GR inverse agonism: not observed
[7]
  effects of excess cortisol on hypertension and insulin resistance: demonstrated the ability to reverse
Stimulated human PBMC’s
  cytokines and chemokines (including IFNγ, IL-1β, IL-1α, IL-6): reversed
  CD3+ cell surface receptors: restoration
  inflammatory cytokines such as TNF-α: rescued
  Expression of CD137 (aka 41-BB) on CD8+ cells: rescued
  CD8+ T-cell activation: restored
  pro-inflammatory cytokine secretion (TNFα, IFNγ): restored
EG7 tumor cells [2]; P<0.002
  circulating IL-10: decreased
EG7 tumor cells [2]; P=0.007
  αPD1 efficacy: increased
EG7 tumor cells [2]; WT mice without added cortisol
  effect on tumor growth: no significant effect
EG7 tumor cells [2]
  TNFα levels in terminal sera: increased
[8]
  NLR in cancer patients with elevated baseline NLR: lowers
[9]; 7 days
  PD1 expression in splenic CD8 T-cells: sufficient to induce
[9]; vs Vehicle Control
  PD-1+ as % CD8+ cells in spleens: significant (p≤0.05) increase

## C[C@]12C=CC(=O)C=C1CC[C@@H]1[C@@H]2C(=O)C[C@@]2(C)[C@H]1CC[C@]2(O)C(=O)CO [prednisone, reference compound]
Healthy volunteers; 25 mg dose, 4 hours post dose
  transcriptional effect in whole blood: large transcriptional effect
Healthy volunteers
  NLR: rapid an acute increase
